Laboratory results from patent publication US20100239563A1 (priority 2001, published 2010).

Key:
[1] = tested on: influenza A virus A/WSN-HK (H3N1); assay type: cell-based
[2] = tested on: influenza B virus strain Massachusetts/6/93

SMILES	titer of infectious virus particles over infection sequences [1]	reduction of the number of newly formed infectious influenza B virus particles [2]
NC12CC3CC(CC(C3)C1)C2 [amantadine, 1-adamantanamine]	increased, in spite of the amantadine treatment	
N#CC(=C(N)Sc1ccccc1N)C(C#N)=C(N)Sc1ccccc1N [U0126, 1,4-diamino-2,3-dicyano-1,4-bis(2-aminophenylthio)butadiene]	significant reduction of the influenza virus particles	approx. 90%
